{"source": "patent US11607422B2", "about": "“Uttroside B and derivatives thereof as therapeutics for hepatocellular carcinoma” (Rajiv Gandhi Centre for Biotechnology, an Autonomous …, priority 2016, dated 2023)", "key": {"[1]": {"details": "literature refs 3, 25; cited from earlier work"}, "U937 leukemia cell line": {"tested_on": "U937 leukemia cell line", "details": "literature ref 14; read-out: IC50, cytotoxicity against U937 leukemia cell line; cited from earlier work"}, "HepG2 cells [2]": {"tested_on": "HepG2 cells", "details": "literature ref 14; read-out: IC50 against HepG2 cells; cited from earlier work"}, "human cancer cells": {"tested_on": "human cancer cells", "details": "literature ref 22; cited from earlier work"}, "LC3 in HepG2 cells": {"tested_on": "LC3 in HepG2 cells", "experiment": "Autophagy flux (LC3I to LC3II conversion) with Bafilomycin", "type": "cell-based, human", "details": "HepG2, LC3 II accumulation", "description": "Concentration dependent effect of BafilomycinAl on the endogenous conversion of LC3I to LC3II in HepG2 cells. Cells were treated with Bafilomycin Al at different concentration and the whole cell lysate was resolved on a 15% gel and immunoblotted against LC3 antibody. Uttroside B is an autophagy inducer in HepG2 cells as analysed by autophagy flux using Bafilomycin Al. […] The increase in LC3 II could not be considered as a fool proof of autophagic induction because a blockage in any step leading from autophagosome maturation to its fusion with lysosomes could cause its accumulation. So, the effect of Uttroside B in HepG2 cells were analyzed for autophagy flux, a more accurate read out of autophagy on co-treatment with Bafilomycin, an autophagy-lysosome inhibitor. Bafilomycin A, blocks autophagy by blocking the fusion of autophagosome with lysosome which cause the accumulation of autophagosome or LC3. First, the concentration of Bafilomycin Al required for saturating the blockage of autophagy-lysosome fusion was standardized. The efficacy of Bafilomycin Al, in terms of blocking autophagosome degradation in HepG2, was found peaked at 10 nM, beyond which no further accumulation of LC3 II was noted, which matched with the earlier reports.^32,37,38 […]"}, "[3]": {"tested_on": "PARP and caspase 9 in HepG2 cells", "experiment": "Western blot of PARP and caspase 9 cleavage with inhibition of autophagy", "type": "cell-based, human", "details": "for effect of autophagy inhibitor on Uttroside B-induced caspase 9 activation: HepG2, Western blot; for effect of autophagy inhibitor on Uttroside B-induced cleavage of PARP: HepG2, pretreatment with inhibitor", "description": "Western blot analysis. Approximately 0.5×10^6 cells were grown on 60 mm culture plates and exposed to drugs as indicated for the desired time. The cells were then scraped out, washed in ice cold 1× PBS and pelleted down at 13000 rpm for 2 min. The pelleted cells were suspended in 150 μL of ice-cold whole cell lysis buffer[(20 mMTris of pH 7.4, 250 mM NaCl, 2 mM EDTA, 0.1% Triton, 1 mM DTT (1,4-dithiothreitol), 0.5 mM PMSF, 4 mM sodium orthovanadate, aprotinin (5 mg m/L) and leupeptin (5 mg m/L)] and kept in ice for 30 min, with intermittent vortexing every 5 min. After incubation, the lysate was centrifuged at 13000 rpm for 10 min at 4° C. and the supernatant was collected. The total protein content in the lysate was estimated by Bradford's method, and was then denatured by boiling with 5× loading dye before separating the proteins by SDSpolyacrylamidegel electrophoresis (SDS-PAGE). Following electrophoresis, the polyacrylamide gel and a PVDF membrane were equilibrated with Towbins buffer (1 L, 25 mM Tris, 192 mM glycine, 20% (v/v) methanol (pH 8.3) for 15-30 min and the separated proteins were electro-transferred to PVDF membrane (Hybond-P, GE Healthcare Life science) using Bio-Rad Mini PROTEAN III wet blot apparatus at 100 V for 2 h at cold conditions. After the transfer, the membrane was rinsed with TBS-T (20 mM Tris pH 7.5, 150 mM NaCl, 0.1% Tween 20) buffer and stained with Ponceau-S to ensure uniform transfer. After washing off the Ponceau stain with TBST, the membrane was exposed to 5% fat free milk in TBST buffer for 1 h at room temperature to block the nonspecific binding of antibodies, followed by overnight incubation with the primary antibody [1:1000 dilution] in 3% BSA in TBST buffer at 4° C. Excess antibody was washed off with TBST buffer and incubated with corresponding secondary antibody [1:5000 dilution] coupled with horse radish peroxidase (HRP) in 5% fat free milk in TBST buffer. The bands were visualized using enhanced chemiluminescence kit (Millipore, St Charles, Mo., United States) following manufacturer's protocol.\nHepG2 was transiently transfected with Beclin siRNA and control siRNA using Lipofectamine LTX Plus reagent kit according to manufacturer's protocol (Invitrogen, USA). 0.35×10^6cells per well were seeded in a six well tissue culture plate containing 2 ml antibiotic-free normal growth medium supplemented with FBS and the cells were incubated to attain 60% confluency. Beclin siRNA duplex solution (Solution A) was added directly to the dilute transfection reagent (LP LTX plus reagent) (Solution B). The solution was mixed gently by pipetting up and down and incubated for 45 minutes at room temperature. The cells were washed gently with 2 ml of transfection medium (optiMEM medium). […]"}, "[4]": {"details": "literature ref 9; cell line not stated; cited from earlier work"}, "HepG2 cells [5]": {"tested_on": "HepG2 cells", "experiment": "MTT assay of Uttroside B with autophagy inhibitor", "type": "cell-based, human", "details": "3 MA 1 mM, 72 h"}, "HepG2 cells [6]": {"tested_on": "HepG2 cells", "experiment": "MTT cell viability assay in HepG2 cells", "type": "cell-based, human", "details": "Homo sapiens, HepG2, 72 h, read-out: IC50, cytotoxicity towards HepG2 cells", "description": "Stocks of crude extracts and isolated compound of S. nigrum was prepared in DMSO for the in vitro studies and stored at −20° C. The DMSO concentration in all studies, including controls, was ≤0.2%. Cell viability assay was performed after 72 h of drug treatment while whole cell lysate preparation and cell cycle analysis were done after 24 h and 48 h of drug treatment. For studying NF-κB and AP-1, Uttroside B was incubated for 2 h before extraction.\nMTT [3-(4,5-dimethylthiazole-2-yl)-2,5-diphenyltetrazolium bromide] assay is a standard colorimetric assay, suitable for analyzing proliferation, viability, and cytotoxicity. Briefly, the HepG2 cells were seeded in 96-well plates (2000 cells/well). […] Fresh media containing 25 μL of MTT solution (5 mg/mL in PBS) and 75 μL of complete medium was added to the wells and incubated for 2 h. At the end of incubation, lysis buffer (20% sodium dodecyl sulphate in 50% dimethyl formamide)was added to the wells (0.1 mL/well) and incubated for another 1 h at 37° C. At the end of incubation, the optical density was measured at 570 nm using ELISA plate reader (Bio-Rad). The relative cell viability in percentage was calculated as (A570 of treated samples/A570 of untreated samples)×100. The IC50 values were extrapolated from polynomial regression analysis of study data.^17"}, "hepatocellular carcinoma": {"tested_on": "hepatocellular carcinoma", "details": "cited from earlier work"}, "HepG2 cells [7]": {"tested_on": "HepG2 cells", "experiment": "Cell cycle analysis by flow cytometry (propidium iodide)", "type": "cell-based, human", "details": "HepG2, 25 μM, 24 h", "description": "FIGS. 3A-3F show Uttroside B induces caspase-dependent apoptosis leading to PARP cleavage in HepG2 cells while being independent of cell cycle. FIGS. 3A-3E are images of Western blots showing caspase activation in HepG2 cells. Whole-cell extracts were prepared after treating HepG2 cells with indicated concentrations of Uttroside B for 48 h, the whole cell lysate was resolved on a 15% gel and subjected to western blotting using antibodies against the caspases 8, 9 & 7 detected by ECL. HepG2 cells were treated with Uttroside B for 48 h at different concentrations and the whole cell lysate was resolved on a 10% gel, immunoblotted against anti-PARP and detected by ECL. […] HepG2 cells were treated with Uttroside B for 48 h, stained with propidium iodide and the cell cycle analysis was done using fluorescence activated cell sorter. Curcumin 25 μM (24 h) is used as positive control.\nFlow cytometry: Cell cycle analysis helps in distinguishing the distribution of a population of cells to the different stages of the cycle. Cell cycle analysis using flow cytometry was performed to investigate the cell cycle arrest induced by Uttroside B. Cell cycle analysis is performed by quantitative measurement of nuclear DNA content in a cell by staining DNA with propidium iodide. […]"}}, "note": "Like-named read-outs stand apart in the source and are kept apart here.", "data": [{"smiles": "C[C@@H]1CC[C@@]2(OC1)O[C@H]1C[C@H]3[C@@H]4CC[C@H]5C[C@@H](O)CC[C@]5(C)[C@H]4CC[C@]3(C)[C@H]1[C@@H]2C", "note": "[tigogenin]", "values": [{"measurement": "effect on cell cycle", "setting": "[1]", "value": "no effect on cell cycle"}]}, {"smiles": "C[C@H](CC[C@@]1(O)O[C@H]2C[C@H]3[C@@H]4CC[C@H]5C[C@@H](O[C@@H]6O[C@H](CO)[C@H](O[C@@H]7O[C@H](CO)[C@@H](O)[C@H](O[C@@H]8OC[C@@H](O)[C@H](O)[C@H]8O)[C@H]7O[C@@H]7O[C@H](CO)[C@H](O)[C@H](O)[C@H]7O)[C@H](O)[C@H]6O)CC[C@]5(C)[C@H]4CC[C@]3(C)[C@H]2[C@@H]1C)CO[C@@H]1O[C@H](CO)[C@@H](O)[C@H](O)[C@H]1O", "note": "[Parvispinoside B]", "values": [{"measurement": "IC50", "setting": "U937 leukemia cell line", "value": 500, "unit": "nM"}, {"measurement": "IC50", "setting": "HepG2 cells [2]", "value": "> 100", "unit": "µM"}]}, {"smiles": "C[C@H]1CC[C@@]2(OC1)O[C@H]1C[C@H]3[C@@H]4CC[C@@H]5C[C@@H](O)C[C@@H](O[C@@H]6OC[C@@H](O)[C@H](O)[C@H]6O[C@@H]6O[C@@H](C)[C@H](O)[C@@H](O)[C@H]6O)[C@]5(C)[C@H]4CC[C@]3(C)[C@H]1[C@@H]2C", "note": "[RCE-4, (1β,3β,5β,25S)-spirostan-1,3-diol1-[α-L-rhamnopyranosyl-(1→2)-β-Dxylopyranoside]]", "values": [{"measurement": "growth inhibition and apoptosis", "setting": "human cancer cells", "value": "induce growth inhibition and apoptosis in human cancer cells"}]}, {"smiles": "CO/C1=C\\C(C)=C\\[C@@H](C)[C@@H](O)[C@@H](C)C/C(C)=C/C=C/[C@H](OC)[C@@H]([C@@H](C)[C@@H](O)[C@H](C)[C@@]2(O)C[C@@H](O)[C@H](C)[C@@H](C(C)C)O2)OC1=O", "note": "[Bafilomycin Al]", "values": [{"measurement": "concentration at which blocking of autophagosome degradation peaked", "setting": "LC3 in HepG2 cells", "value": 10, "unit": "nM"}, {"measurement": "effect of autophagy inhibitor on Uttroside B-induced caspase 9 activation", "setting": "[3]", "value": "enhanced"}, {"measurement": "effect of autophagy inhibitor on Uttroside B-induced cleavage of PARP", "setting": "[3]", "value": "enhanced"}]}, {"smiles": "C[C@@H]1CC[C@@]2(OC1)O[C@H]1C[C@H]3[C@@H]4CC[C@H]5C[C@@H](O[C@@H]6O[C@H](CO)[C@H](O[C@@H]7O[C@H](CO)[C@@H](O)[C@H](O[C@@H]8OC[C@@H](O)[C@H](O)[C@H]8O)[C@H]7O[C@@H]7O[C@H](CO)[C@@H](O)[C@H](O)[C@H]7O)[C@H](O)[C@H]6O)CC[C@]5(C)[C@H]4CC[C@]3(C)[C@H]1[C@@H]2C", "note": "[Degalactotigonin]", "values": [{"measurement": "cytotoxicity", "setting": "[4]", "value": 0.25, "unit": "µM"}]}, {"smiles": "C[C@@H]1CC[C@@]2(OC1)O[C@H]1C[C@H]3[C@@H]4CC=C5C[C@@H](O)CC[C@]5(C)[C@H]4CC[C@]3(C)[C@H]1[C@@H]2C", "note": "[diosgenin]", "values": [{"measurement": "effect on cell cycle", "setting": "[1]", "value": "block cell cycle in G0/G1 phase"}]}, {"smiles": "Cn1cnc(N)c2ncnc1-2", "note": "[3-MA]", "values": [{"measurement": "effect of autophagy inhibitor on Uttroside B-induced cytotoxicity", "setting": "HepG2 cells [5]", "value": "significantly enhanced"}, {"measurement": "effect of autophagy inhibitor on Uttroside B-induced caspase 9 activation", "setting": "[3]", "value": "enhanced"}, {"measurement": "effect of autophagy inhibitor on Uttroside B-induced cleavage of PARP", "setting": "[3]", "value": "enhanced"}]}, {"smiles": "C[C@@H]1CC[C@@]2(OC1)O[C@H]1C[C@H]3[C@@H]4CC[C@@H]5C[C@@H](O)CC[C@]5(C)[C@H]4CC[C@]3(C)[C@H]1[C@@H]2C", "note": "[smilagenin]", "values": [{"measurement": "effect on cell cycle", "setting": "[1]", "value": "block cell cycle in G0/G1 phase"}]}, {"smiles": "CNC(=O)c1cc(Oc2ccc(NC(=O)Nc3ccc(Cl)c(C(F)(F)F)c3)cc2)ccn1", "note": "[sorafenib]", "values": [{"measurement": "IC50", "setting": "HepG2 cells [6]", "value": 5.8, "unit": "µM"}, {"measurement": "prolongation of survival rate", "setting": "hepatocellular carcinoma; HCC patients", "value": "up to 20%"}, {"measurement": "side effects", "setting": "hepatocellular carcinoma; reported", "value": "severe side effects"}]}, {"smiles": "COc1cc(/C=C/C(=O)CC(=O)/C=C/c2ccc(O)c(OC)c2)ccc1O", "note": "[curcumin, reference compound]", "values": [{"measurement": "effect on cell cycle (positive control)", "setting": "HepG2 cells [7]", "value": "readily induced cell cycle arrest at G2/M"}]}]}
